Earlier results on 1 molecule are cited in article PMC3648489, “The sodium glucose cotransporter 2 inhibitor empagliflozin does not prolong QT interval in a thorough QT (TQT) study” (Cardiovascular Diabetology, 2013).

Molecules are shown by their SMILES. Where two headings read alike, the source gives them in different places.

Details of this data set: method as in PMID 27121669. The note with it: cited from earlier work; for Cmax: read-out: Expected mean Cmax.
The mark [1] stands for this setting: single oral dose of 25 mg, healthy volunteers.

Regarding `OC[C@H]1O[C@@H](c2ccc(Cl)c(Cc3ccc(O[C@H]4CCOC4)cc3)c2)[C@H](O)[C@@H](O)[C@@H]1O` [Empagliflozin, empagliflozin], the “Effect of food on drug exposure” value is recorded as “no clinically relevant effects of food on drug exposure”. Besides, for the setting “doses ≥10 mg”, the Terminal elimination half-life was 10 to 13 h. The “Time to peak levels” value (single doses of empagliflozin (≥800 mg as printed)) was 1.5 to 2.5 h. Under setting [1], the Mean tmax is 2.2 h and the Cmax was 505 nM. Further, the Cmax (single oral dose of 200 mg, healthy volunteers) was 3490 nM.

Broadly, the Cmax is the maximum level reached in the sampled fluid or tissue.
